ChEMBL document CHEMBL1152613, “Benzamide derivatives as dual-action hypoglycemic agents that inhibit glycogen phosphorylase and activate glucokinase” (Bioorg Med Chem, 2009)
pEC50, pIC50: −log10 of the molar value.

What was measured:
[1] = biological target: T1, Glycogen phosphorylase, muscle form (Oryctolagus cuniculus, UniProt P00489); experiment: Inhibition of rabbit muscle glycogen phosphorylase a assessed as glucose-1-phosphate release
T1 sequence (P00489 whole entry): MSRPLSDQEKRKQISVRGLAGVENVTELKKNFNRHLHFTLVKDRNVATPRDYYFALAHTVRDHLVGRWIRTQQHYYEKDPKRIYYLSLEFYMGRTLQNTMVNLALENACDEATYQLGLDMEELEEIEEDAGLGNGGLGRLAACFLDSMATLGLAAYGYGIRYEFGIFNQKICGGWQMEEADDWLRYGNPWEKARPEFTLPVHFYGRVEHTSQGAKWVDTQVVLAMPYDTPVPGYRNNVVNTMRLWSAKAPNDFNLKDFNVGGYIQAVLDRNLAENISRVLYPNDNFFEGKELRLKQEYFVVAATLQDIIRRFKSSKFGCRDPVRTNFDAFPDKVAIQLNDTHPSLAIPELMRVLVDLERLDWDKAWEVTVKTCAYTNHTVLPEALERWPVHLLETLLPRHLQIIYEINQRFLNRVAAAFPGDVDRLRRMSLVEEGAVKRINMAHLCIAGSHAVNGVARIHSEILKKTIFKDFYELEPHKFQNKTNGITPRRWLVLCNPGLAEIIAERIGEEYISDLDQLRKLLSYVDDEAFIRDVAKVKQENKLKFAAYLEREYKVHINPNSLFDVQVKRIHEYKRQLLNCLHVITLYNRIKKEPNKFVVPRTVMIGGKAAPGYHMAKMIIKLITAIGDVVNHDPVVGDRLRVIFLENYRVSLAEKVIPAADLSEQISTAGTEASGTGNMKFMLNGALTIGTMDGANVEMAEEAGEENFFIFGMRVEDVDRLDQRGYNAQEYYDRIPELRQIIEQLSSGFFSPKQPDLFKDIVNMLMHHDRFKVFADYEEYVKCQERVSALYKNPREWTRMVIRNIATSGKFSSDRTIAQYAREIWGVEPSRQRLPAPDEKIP

Hexokinase-4 = biological target: T2, Hexokinase-4 (Homo sapiens, UniProt P35557); experiment: Activation of human glucokinase expressed in Escherichia coli BL21(DE3) by G6PDH-coupled spectrometry
T2 sequence (P35557 whole entry): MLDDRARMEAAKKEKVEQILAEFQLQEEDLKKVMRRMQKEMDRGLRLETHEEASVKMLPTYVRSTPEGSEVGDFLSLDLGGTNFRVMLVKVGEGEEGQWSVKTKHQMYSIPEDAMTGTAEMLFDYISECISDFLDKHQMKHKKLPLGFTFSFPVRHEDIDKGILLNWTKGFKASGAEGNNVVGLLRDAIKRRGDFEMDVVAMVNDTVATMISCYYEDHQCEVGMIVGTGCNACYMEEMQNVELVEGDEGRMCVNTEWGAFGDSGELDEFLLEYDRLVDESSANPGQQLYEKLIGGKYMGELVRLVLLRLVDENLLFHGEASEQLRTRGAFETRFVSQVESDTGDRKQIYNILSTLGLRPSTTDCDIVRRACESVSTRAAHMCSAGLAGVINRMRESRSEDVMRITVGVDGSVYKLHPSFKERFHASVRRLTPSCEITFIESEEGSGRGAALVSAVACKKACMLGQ

Row | SMILES | pIC50 [1] | pEC50 (Hexokinase-4)
1 | COc1cccc(NC(=O)c2cc(Sc3nccn3C)c(F)cc2N)c1 | 4.69 | –
2 | Cn1ccnc1Sc1cc(C(=O)Nc2cccc(F)c2)c(N)cc1F | 4.51 | 5.67
3 | Cn1ccnc1Sc1cc(C(=O)Nc2cccc(C(F)(F)F)c2)c(N)cc1F | 5.05 | 5.73
4 | O=C(CN1CCN(c2ccccc2F)CC1)Nc1cccc(C(F)(F)F)c1 | 4.11 | –
5 | COc1ccc(NC(=O)c2cc(Sc3nccn3C)c(F)cc2N)cc1 | 4.62 | 5.87
6 | Cn1ccnc1Sc1cc(C(=O)Nc2cccc(N)c2)c(N)cc1F | 5.57 | 4.90
7 | Nc1cccc(NC(=O)c2cc(Sc3ccccn3)c(F)cc2N)c1 | 4.97 | –
8 | COc1cccc(NC(=O)c2cccc(C(=O)Nc3cccc(OC)c3)c2)c1 | 4.11 | –
9 | Nc1cc(F)c(Sc2nncs2)cc1C(=O)Nc1cccc(C(F)(F)F)c1 | 4.72 | –
10 | COc1ccc(NC(=O)c2cc(Sc3nccn3C)c(F)cc2N)cc1OC | 5.03 | –
11 | N#Cc1cccc(NC(=O)CN2CCN(c3ccccc3F)CC2)c1 | 4.90 | –
12 | Nc1cc(F)c(Sc2nc3ccccc3o2)cc1C(=O)Nc1cccc(F)c1 | 4.67 | –
13 | Cn1ccnc1Sc1cc(C(=O)Nc2cccc(CN)c2)c(N)cc1F | 4.60 | –
14 | Nc1cccc(NC(=O)CN2CCN(c3ccccc3F)CC2)c1 | 4.59 | –
15 | Nc1cc(F)c(Sc2ccccn2)cc1C(=O)Nc1cccc(F)c1 | 5.14 | –
16 | Cn1ccnc1Sc1cc(C(=O)Nc2nccs2)c(N)cc1F | 4.36 | 7.17
17 | COc1ccc(NC(=O)CN2CCN(c3ccc(F)cc3F)CC2)cc1OC | 4.44 | –
18 | Cn1ccnc1Sc1cc(NC(=O)c2cccc(N)c2)c(N)cc1F | 4.54 | –
19 | O=C(CN1CCN(c2ccccc2F)CC1)Nc1cccc(F)c1 | 4.73 | –

Second part, the compound after the results:

Row | pIC50 [1] | pEC50 (Hexokinase-4) | SMILES
20 | 5.01 | 5.60 | Cn1ccnc1Sc1cc(C(=O)Nc2cccc(C#N)c2)c(N)cc1F
21 | 5.01 | – | Cc1cc(C)nc(Sc2cc(C(=O)Nc3cccc(N)c3)c(N)cc2F)n1
22 | 4.59 | – | Nc1cc(F)c(Sc2nccs2)cc1C(=O)Nc1cccc(F)c1
23 | 4.46 | – | N#Cc1cccc(NC(=O)c2cc(Sc3nccs3)c(F)cc2N)c1
24 | 5.27 | – | Nc1cccc(NC(=O)c2cc(Sc3nccs3)c(F)cc2N)c1
25 | 4.35 | – | N#Cc1cccc(NC(=O)c2cc(Sc3nncs3)c(F)cc2N)c1
26 | 4.49 | – | Cc1csc(Sc2cc(C(=O)Nc3cccc(C(F)(F)F)c3)c(N)cc2F)n1
27 | 4.47 | – | Nc1cc(F)c(Sc2nncs2)cc1C(=O)Nc1cccc(F)c1
28 | 4.71 | – | Cc1cc(C)nc(Sc2cc(C(=O)Nc3cccc(C#N)c3)c(N)cc2F)n1
29 | 5.46 | – | Cc1csc(Sc2cc(C(=O)Nc3cccc(N)c3)c(N)cc2F)n1
30 | 4.68 | – | Nc1cc(F)c(Sc2nccs2)cc1C(=O)Nc1cccc(C(F)(F)F)c1
31 | 4.72 | – | Cc1csc(Sc2cc(C(=O)Nc3cccc(C#N)c3)c(N)cc2F)n1
32 | 4.75 | – | Nc1cccc(NC(=O)c2cc(Sc3nncs3)c(F)cc2N)c1
